Laboratory results from patent US12187702B2, “Sulfonamideurea compounds” (Inflazome Limited, priority 2018, dated 2025).
Structures can show the parent of a compound that is named as a salt.

Assays:
NLRP3 [1] = target: T1, NLRP3 (Homo sapiens, UniProt Q96P20); assay: Human whole blood IL-1β release assay (LPS + nigericin, AlphaLisa); type: cell-based; parameters: Plate out 80 μl of whole blood containing 1 μg/ml of LPS; from tissue; host or cells: human whole blood from healthy donors
Method: For systemic delivery, the ability to inhibit NLRP3 when the compounds are present within the bloodstream is of great importance. For this reason, the NLRP3 inhibitory activity of a number of compounds in human whole blood was investigated in accordance with the following protocol.
Human whole blood in Li-heparin tubes was obtained from healthy donors from a volunteer donor panel. • 1. Plate out 80 μl of whole blood containing 1 μg/ml of LPS in 96-well, clear bottom cell culture plate (Corning #3585) • 2. Add 10 μl compound (8 points half-log dilution with 10 μM top dose) or vehicle (DMSO 0.1% FAC) to the appropriate wells • 3. Incubate for 3 hrs at 37° C., 5% CO2 • 4. Add 10 μl nigericin (Sigma #N7143) (10 μM FAC) to all wells • 5. Incubate for 1 hr at 37° C., 5% CO2 • 6. At the end of the incubation period, spin plates at 300×g for 5 mins to pellet cells and remove 20 μl of supernatant and add to 96-well v-bottom plates for IL-1β analysis (note: these plates containing the supernatants can be stored at −80° C. to be analysed at a later date) • 7. IL-1β was measured according to the manufacturer protocol (Perkin Elmer-AlphaLisa IL-1 Kit AL220F-5000) • 8. IC50 data is fitted to a non-linear regression equation (log inhibitor vs response-variable slope 4-parameters)

NLRP3 [2] = target: T1, NLRP3; assay: THP-1 cells pyroptosis assay (LPS + nigericin, resazurin read-out); type: cell-based; parameters: Seed THP-1 cells (25,000 cells/well) containing 1.0 μg/ml LPS; host or cells: THP-1 cells
Method: THP-1 cells (ATCC #TIB-202) were grown in RPMI containing L-glutamine (Gibco #11835) supplemented with 1 mM sodium pyruvate (Sigma #S8636) and penicillin (100 units/ml)/streptomycin (0.1 mg/ml) (Sigma #P4333) in 10% Fetal Bovine Serum (FBS) (Sigma #F0804). The cells were routinely passaged and grown to confluency (˜10^6 cells/ml). On the day of the experiment, THP-1 cells were harvested and resuspended into RPMI medium (without FBS). The cells were then counted and viability (>90%) checked by Trypan blue (Sigma #T8154). Appropriate dilutions were made to give a concentration of 625,000 cells/ml. To this diluted cell solution was added LPS (Sigma #L4524) to give a 1 μg/ml Final Assay Concentration (FAC). 40 μl of the final preparation was aliquoted into each well of a 96-well plate. The plate thus prepared was used for compound screening.
The following method step-by-step assay was followed for compound screening. • 1. Seed THP-1 cells (25,000 cells/well) containing 1.0 μg/ml LPS in 40 μl of RPMI medium (without FBS) in 96-well, black walled, clear bottom cell culture plates coated with poly-D-lysine (VWR #734-0317) • 2. Add 5 μl compound (8 points half-log dilution, with 10 μM top dose) or vehicle (DMSO 0.1% FAC) to the appropriate wells • 3. Incubate for 3 hrs at 37° C., 5% CO2 • 4. Add 5 μl nigericin (Sigma #N7143) (FAC 5 μM) to all wells • 5. Incubate for 1 hr at 37° C., 5% CO2 • 6. At the end of the incubation period, spin plates at 300×g for 3 mins and remove supernatant • 7. Then add 50 μl of resazurin (Sigma #R7017) (FAC 100 μM resazurin in RPMI medium without FBS) and incubate plates for a further 1-2 hrs at 37° C. and 5% CO2 • 8. Plates were read in an Envision reader at Ex 560 nm and Em 590 nm • 9. IC50 data is fitted to a non-linear regression equation (log inhibitor vs response-variable slope 4-parameters)

[3] = human whole blood, 1 μg/ml LPS, 10 μM nigericin, IL-1β release, read-out: HWB IC50
[4] = THP-1 cells, 1 μg/ml LPS, 5 μM nigericin, NLRP3 inhibitory activity, read-out: THP IC50

T1 sequence (Q96P20 whole entry): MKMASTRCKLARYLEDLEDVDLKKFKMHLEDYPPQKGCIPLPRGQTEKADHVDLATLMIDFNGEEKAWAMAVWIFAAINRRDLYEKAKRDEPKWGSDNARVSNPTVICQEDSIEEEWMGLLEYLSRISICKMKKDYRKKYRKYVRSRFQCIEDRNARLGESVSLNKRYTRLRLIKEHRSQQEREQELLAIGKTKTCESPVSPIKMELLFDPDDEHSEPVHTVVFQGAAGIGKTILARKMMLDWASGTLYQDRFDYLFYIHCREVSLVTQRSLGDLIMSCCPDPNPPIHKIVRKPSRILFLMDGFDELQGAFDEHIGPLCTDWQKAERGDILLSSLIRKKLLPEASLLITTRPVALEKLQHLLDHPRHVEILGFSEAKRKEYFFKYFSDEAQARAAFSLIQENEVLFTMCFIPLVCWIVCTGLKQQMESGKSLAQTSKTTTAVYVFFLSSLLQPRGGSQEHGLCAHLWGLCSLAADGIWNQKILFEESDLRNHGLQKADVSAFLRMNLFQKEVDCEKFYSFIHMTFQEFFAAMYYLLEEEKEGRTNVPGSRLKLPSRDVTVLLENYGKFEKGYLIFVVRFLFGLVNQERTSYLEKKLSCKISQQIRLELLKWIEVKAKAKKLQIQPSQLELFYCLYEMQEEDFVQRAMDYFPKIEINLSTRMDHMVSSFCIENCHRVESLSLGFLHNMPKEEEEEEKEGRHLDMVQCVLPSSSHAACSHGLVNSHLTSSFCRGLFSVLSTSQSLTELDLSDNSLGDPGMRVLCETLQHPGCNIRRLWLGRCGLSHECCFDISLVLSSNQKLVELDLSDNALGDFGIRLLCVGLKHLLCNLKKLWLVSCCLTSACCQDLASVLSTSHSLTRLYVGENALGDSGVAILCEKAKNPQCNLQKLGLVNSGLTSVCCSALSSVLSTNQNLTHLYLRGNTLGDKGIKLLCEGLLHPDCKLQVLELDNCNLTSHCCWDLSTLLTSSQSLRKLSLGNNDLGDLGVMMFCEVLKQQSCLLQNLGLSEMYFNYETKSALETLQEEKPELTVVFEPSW

SMILES	IC50 (NLRP3 [1]; [3]) [nM]	IC50 (NLRP3 [2]; [4]) [nM]	IC50 (NLRP3 [1]) [nM]	IC50 (NLRP3 [2]) [nM]
CC(C)N1CC2CCC(C1)N2S(=O)(=O)NC(=O)Nc1c2c(cc3c1CCC3)CCC2 [Example 38, N-((1,2,3,5,6,7-Hexahydro-s-indacen-4-yl)carbamoyl)-3-isopropyl-3,8-diazabicyclo[3.2.1]octane-8-sulfonamide, potassium salt]	< 1000	< 500		
CCN(CCN(C)C)S(=O)(=O)NC(=O)Nc1c2c(cc3c1CCC3)CCC2 [Example 39, 3-(N-(2-(Dimethylamino)ethyl)-N-ethylsulfamoyl))-1-(1,2,3,5,6,7-hexahydro-s-indacen-4-yl)urea, potassium salt]	< 1000	< 500		
C#CCCC1(CCNS(=O)(=O)NC(=O)Nc2c3c(cc4c2CCC4)CCC3)N=N1 [Example 45, 3-(N-(2-(3-(but-3-yn-1-yl)-3H-diazirin-3-yl)ethyl))sulfamoyl)-1-(1,2,3,5,6,7-hexahydro-s-indacen-4-yl)urea, potassium salt]	< 10000	< 500		
O=C(Nc1c2c(cc3c1CCC3)CCC2)NS(=O)(=O)N1CC(N2CCC2)C1 [Example 46, N-((1,2,3,5,6,7-Hexahydro-s-indacen-4-yl)carbamoyl)-[1,3′-biazetidine]-1′-sulfonamide, potassium salt]	< 5000	< 1000		
CCN1CCC1CNS(=O)(=O)NC(=O)Nc1c2c(cc3c1CCC3)CCC2 (stereo not shown) [Example 47, 3-(N-((1-Ethylazetidin-2-yl)methyl)sulfamoyl)-1-(1,2,3,5,6,7-hexahydro-s-indacen-4-yl)urea, potassium salt]	< 1000	< 1000		
CN(C)CCN(CCCc1ccccc1)S(=O)(=O)NC(=O)Nc1c2c(cc3c1CCC3)CCC2 [Example 58, 3-(N-(2-(Dimethylamino)ethyl)-N-(3-phenylpropyl)sulfamoyl)-1-(1,2,3,5,6,7-hexahydro-s-indacen-4-yl)urea, potassium salt]	< 5000	< 500		
CCN1CC2CCC(C1)N2S(=O)(=O)NC(=O)Nc1c2c(cc3c1CCC3)CCC2 [Example 62, 3-Ethyl-N-((1,2,3,5,6,7-hexahydro-s-indacen-4-yl)carbamoyl)-3,8-diazabicyclo[3.2.1]octane-8-sulfonamide, potassium salt]	< 1000	< 500		
CC(C)n1cc(NS(=O)(=O)NC(=O)Nc2c3c(cc4c2CCC4)CCC3)cn1 [Example 65, 3-(N-(1-Isopropyl-1H-pyrazol-4-yl)sulfamoyl)-1-(1,2,3,5,6,7-hexahydro-s-indacen-4-yl)urea, potassium salt]	< 5000	< 500		
CN(C)CC1CCN(S(=O)(=O)NC(=O)Nc2c3c(cc4c2CCC4)CCC3)C1 (stereo not shown) [Example 68, potassium salt]	< 1000	< 500		
CC(C)(C)NCCNS(=O)(=O)NC(=O)Nc1c2c(cc3c1CCC3)CCC2 [Example 71, 3-(N-(2-(tert-Butylamino)ethyl)sulfamoyl)-1-(1,2,3,5,6,7-hexahydro-s-indacen-4-yl)urea, potassium salt]	< 1000	< 500		
O=C(Nc1c2c(cc3c1CCC3)CCC2)NS(=O)(=O)N1CCC(N2CCC2)C1 (stereo not shown) [Example 73, 3-(Azetidin-1-yl)-N-((1,2,3,5,6,7-hexahydro-s-indacen-4-yl)carbamoyl)pyrrolidine-1-sulfonamide, potassium salt]	< 5000	< 1000		
O=C(Nc1c2c(cc3c1CCC3)CCC2)NS(=O)(=O)N1CC2CCC(C1)N2C1CC1 [Example 75, 8-Cyclopropyl-N-((1,2,3,5,6,7-hexahydro-s-indacen-4-yl)carbamoyl)-3,8-diazabicyclo[3.2.1]octane-3-sulfonamide, potassium salt]			< 5000	< 500
CN1CCCC1CN(C)S(=O)(=O)NC(=O)Nc1c2c(cc3c1CCC3)CCC2 (stereo not shown) [Example 80, 3-(N-Methyl-N-((1-methylpyrrolidin-2-yl)methyl)sulfamoyl)-1-(1,2,3,5,6,7-hexahydro-s-indacen-4-yl)urea, potassium salt]	< 500	< 500		
CN(C)CCCNS(=O)(=O)NC(=O)Nc1c2c(cc3c1CCC3)CCC2 [Example 81, 3-(N-(3-(Dimethylamino)propyl)sulfamoyl)-1-(1,2,3,5,6,7-hexahydro-s-indacen-4-yl)urea, potassium salt]	< 500	< 500		

Further lines, with some results ahead:

IC50 (NLRP3 [1]; [3]) [nM]	IC50 (NLRP3 [2]; [4]) [nM]	SMILES	IC50 (NLRP3 [1]) [nM]	IC50 (NLRP3 [2]) [nM]
< 500	< 1000	CCN(CC)CCNS(=O)(=O)NC(=O)Nc1c2c(cc3c1CCC3)CCC2 [Example 40, 3-(N-(2-(Diethylamino)ethyl)sulfamoyl))-1-(1,2,3,5,6,7-hexahydro-s-indacen-4-yl)urea, potassium salt]		
< 500	< 500	CN1C[C@H]2C[C@@H]1CN2S(=O)(=O)NC(=O)Nc1c2c(cc3c1CCC3)CCC2 [Example 43, (1R,4R)—N-((1,2,3,5,6,7-Hexahydro-s-indacen-4-yl)carbamoyl)-5-methyl-2,5-diazabicyclo[2.2.1]heptane-2-sulfonamide, potassium salt]		
< 500	< 1000	CN1CCC(NS(=O)(=O)NC(=O)Nc2c3c(cc4c2CCC4)CCC3)C1 (stereo not shown) [Example 44, 3-(N-(1-Methylpyrrolidin-3-yl))sulfamoyl)-1-(1,2,3,5,6,7-hexahydro-s-indacen-4-yl)urea, potassium salt]		
< 500	< 500	CCN(CC)C1CCN(S(=O)(=O)NC(=O)Nc2c3c(cc4c2CCC4)CCC3)C1 (stereo not shown) [Example 49, 3-(3-((Diethylamino)pyrrolidine)-1-sulfamoyl)-1-(1,2,3,5,6,7-hexahydro-s-indacen-4-yl)urea, potassium salt]		
< 500	< 500	CC(C)N1CCC1CNS(=O)(=O)NC(=O)Nc1c2c(cc3c1CCC3)CCC2 (stereo not shown) [Example 50, 3-(N-((1-Isopropylazetidin-2-yl)methyl)sulfamoyl)-1-(1,2,3,5,6,7-hexahydro-s-indacen-4-yl)urea, potassium salt]		
< 500	< 500	CN1CCCC(NS(=O)(=O)NC(=O)Nc2c3c(cc4c2CCC4)CCC3)C1 (stereo not shown) [Example 52, 3-(N-(1-Methylpiperidin-3-yl)sulfamoyl)-1-(1,2,3,5,6,7-hexahydro-s-indacen-4-yl)urea, potassium salt]		
< 500	< 500	CCN1C2CCC1CN(S(=O)(=O)NC(=O)Nc1c3c(cc4c1CCC4)CCC3)C2 [Example 61, 8-Ethyl-N-((1,2,3,5,6,7-hexahydro-s-indacen-4-yl)carbamoyl)-3,8-diazabicyclo[3.2.1]octane-3-sulfonamide, potassium salt]		
< 500	< 500	O=C(Nc1c2c(cc3c1CCC3)CCC2)NS(=O)(=O)N1CCC(N2CCCC2)C1 (stereo not shown) [Example 72, N-((1,2,3,5,6,7-Hexahydro-s-indacen-4-yl)carbamoyl)-[1,3′-bipyrrolidine]-1′-sulfonamide, potassium salt]		
< 500	< 500	CN1CC[C@H](N(C)S(=O)(=O)NC(=O)Nc2c3c(cc4c2CCC4)CCC3)C1 [Example 76, 3-((S)—N-Methyl-N-(1-methylpyrrolidin-3-yl)sulfamoyl)-1-(1,2,3,5,6,7-hexahydro-s-indacen-4-yl)urea, potassium salt]		
